Measurements as given in US20210002209A1, “NOVEL CRYSTALLINE FORMS OF TAMIBAROTENE FOR TREATMENT OF CANCER” (TRANSGENEX NANOBIOTECH, INC., priority 2018, published 2021).
Converted amounts (≈) assume the structure as drawn. Like-named read-outs stand apart in the source and are kept apart here.

How the values were obtained:
[1] = cited from earlier work
[2] = tested on: U-2 OS; assay: IC50 studies, monolayer cell culture assay (CellTiter-Glo cell viability, 72 hours); assay type: cell-based; conditions: sarcoma
Experimental: (§1) Cancer cell lines listed in Table 1, were subjected for testing anti-cancer potency or the half maximal inhibitory concentration (IC50) of tamibarotene molecular complexes.
(§2) The SK-ES-1, U-2 OS, and SAOS-2 cells were cultured in a growth medium that is ATCC-formulated McCoy's 5a Medium Modified, Catalog No. 30-2007. The PC-3, PANC-1, SK-Mel-5, A549, H460, and H1299 were cultured in a growth medium that is ATCC-formulated Dulbecco's Modified Eagle's Medium (DMEM), Catalog No. 30-2002. The cells were seeded on 96-well microtiter plates with 3500 cells per well and cultured in an incubator (Model 3120, Thermo Scientific, USA) with a constant temperature at 37° C. and 5% carbon dioxide (CO2) gas for 24 hours.
(§3) The new tamibarotene molecular complexes were made into a series with concentration of 200 nM to 40 nM, 8 nM, 1.6 nM, 0.32 nM, and 0.064 nM. […]
(§4) The treated cells in the 96 well plate was then further cultured at the same conditions for 72 hours and then subjected for a final cell viability measurement. The measurement used a homogeneous method to determine the number of metabolically active cells presented in each of treatments. A testing reagent for the measurement is a mixture solution of the CellTiter-Glo® 2.0 reagent (CTG, Promega Cat #G9243, USA) and growth medium in 1:1 ratio in this respect.
(§5) The 96-well plate with the new molecular complex treated cells was taken out from incubator after the 72 hours of incubation, and the treatment solution in each well was removed using a multichannel pipette, and 100 μl of the testing reagent were added into each well. The plate was then placed on a plate shaker for 15 min. The plate was covered with a piece of aluminum foil to protect the CTG luminescence during the shaking time.
(§6) Then 90 μl of the 100 μl testing reagent were transferred into an opaque-walled 96-well plate for the CTG luminescence reading on a plate reader (SynergyH4 Hybrid Reader, Biotek, USA). The luminescence intensity of each treatment was positively correlated with the number of cells survived during the treatments.
(§7) All the treatment data was normalized by comparing with the control samples that had only growth medium without any molecular complexes. The half maximal inhibitory concentration (IC50) data was calculated using the nonlinear regression model and dose-responses (inhibition) curve built in the software. Each of treatments was performed in three replications each time and repeated three times for validation. The IC50 average […] (Avg) and standard deviation (STDV) were calculated based on the three replications.

[3] = tested on: SK-ES-1; assay: as above; assay type: cell-based
Experimental: as §1, §2, §3, §4, §5, §6, §7

[4] = tested on: H1299; assay: as above; assay type: cell-based
Experimental: as §1, §2, §3, §4, §5, §6, §7

[5] = tested on: SAOS; assay: as above; assay type: cell-based; conditions: sarcoma
Experimental: as §1, §2, §3, §4, §5, §6, §7

[6] = tested on: PC-3; assay: as above; assay type: cell-based; conditions: PC-3, prostate
Experimental: as §1, §2, §3, §4, §5, §6, §7

[7] = tested on: SK-Mel-5; assay: as above; assay type: cell-based; conditions: SK-Mel-5, skin
Experimental: as §1, §2, §3, §4, §5, §6, §7

[8] = tested on: A549; assay: as above; assay type: cell-based; conditions: A549, lung
Experimental: as §1, §2, §3, §4, §5, §6, §7

[9] = tested on: H460; assay: as above; assay type: cell-based
Experimental: as §1, §2, §3, §4, §5, §6, §7

[10] = tested on: sarcoma cell line SK-ES-1; assay: Tumor sphere formation assay; assay type: cell-based; conditions: SK-ES-1 spheres, diameter over 50 μm, day 6
Excerpt: Cancer stem cells (CSCs) are defined as a small subset of cells within a tumor with the ability to self-renew and often drive tumor progression and recurrence after chemotherapy treatment (Zhou et al. (2015) “A Reliable Parameter to Standardize the Scoring of Stem Cell Spheres,” PLOS One 10(5); e0127348). It is important to study the responses of cancer stem cells or the tumors treated with the new molecular complexes. We have assessed CSC growth using tumor sphere formation assay, which involves culturing cancer cells in low attachment plates in serum free media. Sphere size and diameter was measured using ImageJ software and statistical analysis was performed using Graph Pad Prism Software. […]
On the day 6 of seeding, 10 μl of NucBlue Live Cell Stain ReadyProbes (Invitrogen Cat #R37605, USA) were added into each well for staining to visualize the live cells under the blue fluorescent light. […] Then the plate was brought to the Keyence imaging device (Keyence America, All-in-One Fluorescence Microscope BZ-X800, USA) for image scanning. […]
The sphere image area is calculated as a sum of image area of every individual sphere with diameter over 50 μm in each treatment well. […]
The sarcoma spheres were stained with NucBlue Live Cell Stain ReadyProbes (Invitrogen Cat #R37605) and imaged under 4× objective lens on Keyence imaging scanner (Keyence America, All-in-One Fluorescence Microscope BZ-X800).

[11] = Test I, read-out: IC50 Test(I) Avg
[12] = Test II, read-out: IC50 Test (II) Avg
[13] = Test III, read-out: IC50 Test (III) Avg
[14] = Homo sapiens, Test I, read-out: IC50 Test(I) Avg
[15] = Homo sapiens, Test II, read-out: IC50 Test (II) Avg
[16] = Homo sapiens, Test III, read-out: IC50 Test (III) Avg
[17] = H1299, lung, Test I, read-out: IC50 Test(I) Avg
[18] = H1299, lung, Test II, read-out: IC50 Test (II) Avg
[19] = H1299, lung, Test III, read-out: IC50 Test (III) Avg
[20] = H460, lung, Test I, read-out: IC50 Test(I) Avg
[21] = H460, lung, Test II, read-out: IC50 Test (II) Avg
[22] = H460, lung, Test III, read-out: IC50 Test (III) Avg

CC1(C)CCC(C)(C)c2cc(NC(=O)c3ccc(C(=O)O)cc3)ccc21 [TAM, 4-[(5,5,8,8-tetramethyl-5,6,7,8-tetrahydronaphthalen-2-yl)carbamoyl]benzoic acid, reference compound]
solubility in DMF, methanol, ethanol, DMSO, and other organic solvents [1]: soluble | solubility in acetonitrile, water, and various other buffer solutions ([1]; pH 3~7, from CN101200435 (B)): insoluble | water solubility ([1]; water, drug bank): 0.575 µg/mL (≈ 1.64 µM) | IC50 ([2]; Homo sapiens, U2OS, Test I, read-out: IC50 Test(I) Avg): > 100 µM | IC50 ([2]; Homo sapiens, U2OS, Test II, read-out: IC50 Test (II) Avg): 77.7 µM | IC50 ([2]; Homo sapiens, U2OS, Test III, read-out: IC50 Test (III) Avg): 69.7 µM | IC50 ([3]; Homo sapiens, SK-ES1, SK-ES-1, sarcoma, Test I, read-out: IC50 Test(I) Avg): > 100 µM | IC50 ([3]; Homo sapiens, SK-ES1, SK-ES-1, sarcoma, Test II, read-out: IC50 Test (II) Avg): 73.2 µM | IC50 ([3]; Homo sapiens, SK-ES1, SK-ES-1, sarcoma, Test III, read-out: IC50 Test (III) Avg): 72.5 µM | IC50 ([4]; Homo sapiens, NCI-H1299, H1299, lung, Test I, read-out: IC50 Test(I) Avg): 78.9 µM | IC50 ([4]; Homo sapiens, NCI-H1299, H1299, lung, Test II, read-out: IC50 Test (II) Avg): 67.3 µM | IC50 ([4]; Homo sapiens, NCI-H1299, H1299, lung, Test III, read-out: IC50 Test (III) Avg): 83 µM | IC50 [5, 11]: 55.4 µM | IC50 [5, 12]: 46.5 µM | IC50 [5, 13]: > 100 µM | IC50 [6, 14]: > 100 µM | IC50 [6, 15]: > 100 µM | IC50 [6, 16]: > 100 µM | IC50 [7, 14]: > 100 µM | IC50 [7, 15]: > 100 µM | IC50 [7, 16]: > 100 µM | IC50 [8, 14]: 59.9 µM | IC50 [8, 15]: 60.6 µM | IC50 [8, 16]: 57.8 µM | IC50 ([9]; Homo sapiens, NCI-H460, H460, lung, Test I, read-out: IC50 Test(I) Avg): 69.3 µM | IC50 ([9]; Homo sapiens, NCI-H460, H460, lung, Test II, read-out: IC50 Test (II) Avg): 58.3 µM | IC50 ([9]; Homo sapiens, NCI-H460, H460, lung, Test III, read-out: IC50 Test (III) Avg): 67.1 µM

CC1(C)CCC(C)(C)c2cc(NC(=O)c3ccc(C(=O)O)cc3)ccc21.O=C(O)c1ccc(-c2ccccc2)cc1 [TAM-biphenyl-4-carboxylic acid]
IC50 [4, 17]: 65.5 µM | IC50 [4, 18]: 59.8 µM | IC50 [4, 19]: 65.3 µM | IC50 [5, 11]: 43.5 µM | IC50 [5, 12]: 37.1 µM | IC50 [5, 13]: > 100 µM | IC50 [8, 11]: 49.3 µM | IC50 [8, 12]: 41.3 µM | IC50 [8, 13]: 46.3 µM | IC50 [9, 20]: 56 µM | IC50 [9, 21]: 51.7 µM | IC50 [9, 22]: 55.2 µM

CC1(C)CCC(C)(C)c2cc(NC(=O)c3ccc(C(=O)O)cc3)ccc21.O=C(O)c1ccccc1-c1ccccc1C(=O)O [TAM-diphenic acid]
IC50 [4, 17]: 40.8 µM | IC50 [4, 18]: 41.4 µM | IC50 [4, 19]: 39.9 µM | IC50 [8, 11]: 21.7 µM | IC50 [8, 12]: 38.9 µM | IC50 [8, 13]: 26.6 µM | IC50 [9, 20]: 35 µM | IC50 [9, 21]: 34.7 µM | IC50 [9, 22]: 32.3 µM

CC1(C)CCC(C)(C)c2cc(NC(=O)c3ccc(C(=O)O)cc3)ccc21.O=C(O)c1cc(O)c(O)c(O)c1 [TAM-gallic acid]
tumor spheres size compared with the parent molecule [10]: reduced tumor spheres size | IC50 [2, 11]: 16.4 µM | IC50 [2, 12]: 13 µM | IC50 [2, 13]: 10.6 µM | IC50 ([3]; SK-ES-1, sarcoma, Test I, read-out: IC50 Test(I) Avg): 10.1 µM | IC50 ([3]; SK-ES-1, sarcoma, Test II, read-out: IC50 Test (II) Avg): 5.94 µM | IC50 ([3]; SK-ES-1, sarcoma, Test III, read-out: IC50 Test (III) Avg): 6.76 µM | IC50 [4, 17]: 11.2 µM | IC50 [4, 18]: 24.8 µM | IC50 [4, 19]: 11.7 µM | IC50 [5, 11]: 11.6 µM | IC50 [5, 12]: 9.98 µM | IC50 [5, 13]: 14.9 µM | IC50 [6, 11]: 81 µM | IC50 [6, 12]: 90.3 µM | IC50 [6, 13]: 108 µM | IC50 [7, 11]: 47.5 µM | IC50 [7, 12]: 64.2 µM | IC50 [7, 13]: 88.5 µM | IC50 [8, 11]: 39.9 µM | IC50 [8, 12]: 43.3 µM | IC50 [8, 13]: 39.9 µM | IC50 [9, 20]: 42 µM | IC50 [9, 21]: 41.9 µM | IC50 [9, 22]: 41.3 µM

CC1(C)CCC(C)(C)c2cc(NC(=O)c3ccc(C(=O)O)cc3)ccc21.NC(=O)c1cccnc1 [TAM-nicotinamide]
IC50 [4, 17]: 49.7 µM | IC50 [4, 18]: 55.9 µM | IC50 [4, 19]: 53.9 µM | IC50 [8, 11]: 56.6 µM | IC50 [8, 12]: 59.1 µM | IC50 [8, 13]: 49.8 µM | IC50 [9, 20]: 56.6 µM | IC50 [9, 21]: 51.1 µM | IC50 [9, 22]: 50.3 µM
